Measurements reported in the CheMixHub viscosity set.
± gives the uncertainty stated by the source.

Assay: xn = mol fraction of the nth substance listed

O=S(=O)([O-])NC1CCCCC1.[Li+] + O
viscosity [mPa·s], 101 kPa
Details	x1 = 0.002028	x1 = 0.002453	x1 = 0.00294	x1 = 0.003377	x1 = 0.003805	x1 = 0.004126	x1 = 0.00489
293.15 K	1.078 ± 0.0072	1.095 ± 0.0073	1.115 ± 0.0074	1.133 ± 0.0075	1.151 ± 0.0076	1.164 ± 0.0077	1.197 ± 0.0079
298.15 K	0.956 ± 0.0064	0.9707 ± 0.0065	0.9874 ± 0.0066	1.002 ± 0.0067	1.018 ± 0.0068	1.029 ± 0.0069	1.058 ± 0.007
303.15 K	0.8547 ± 0.0058	0.8675 ± 0.0059	0.8819 ± 0.006	0.8949 ± 0.0061	0.9081 ± 0.0061	0.9174 ± 0.0062	0.9409 ± 0.0063
313.15 K	0.6978 ± 0.0049	0.7075 ± 0.0049	0.7186 ± 0.005	0.7288 ± 0.0051	0.739 ± 0.0051	0.7458 ± 0.0052	0.7652 ± 0.0053
323.15 K	0.5823 ± 0.0042	0.5898 ± 0.0042	0.5985 ± 0.0043	0.6067 ± 0.0043	0.6147 ± 0.0044	0.6202 ± 0.0044	0.6355 ± 0.0045

Nc1ccccc1 + CC(C)(C)O
303 K, 101.33 kPa
Details	viscosity [mPa·s]
x1 = 0.1	2.851 ± 0.3
x1 = 0.2	2.363 ± 0.24
x1 = 0.3	2.307 ± 0.24
x1 = 0.4	2.218 ± 0.23
x1 = 0.5	2.257 ± 0.23
x1 = 0.6	2.305 ± 0.24
x1 = 0.7	2.407 ± 0.25
x1 = 0.8	2.524 ± 0.26
x1 = 0.9	2.766 ± 0.29

C[NH+](CCO)CCO.O=C[O-] + CO
viscosity [mPa·s], 101 kPa
Details	293.15 K	303.15 K	313.15 K	323.15 K
x1 = 0.0524	26.47 ± 0.54	15.39 ± 0.32	6.822 ± 0.14	4.667 ± 0.097
x1 = 0.1066	52.08 ± 1.1	24.58 ± 0.51	13.12 ± 0.27	8.99 ± 0.18
x1 = 0.2075	103.1 ± 2.3	49.04 ± 1	26.16 ± 0.53	17.87 ± 0.36
x1 = 0.3137	158.6 ± 3.9	77.7 ± 1.6	40.82 ± 0.84	27.89 ± 0.57
x1 = 0.4061	207.6 ± 5.6	102 ± 2.3	54.12 ± 1.1	37.05 ± 0.76
x1 = 0.5016	259.6 ± 7.5	126.3 ± 3	68.64 ± 1.4	47.08 ± 0.96
x1 = 0.6339	339 ± 11	163 ± 4.1	91.65 ± 2	62.82 ± 1.3
x1 = 0.7031	388.3 ± 13	187.2 ± 4.9	106.1 ± 2.4	72.5 ± 1.5
x1 = 0.8195	494.6 ± 17	243.3 ± 6.9	136.4 ± 3.3	92.04 ± 2
x1 = 0.9184	618.8 ± 23	307.1 ± 9.4	167.4 ± 4.3	111.1 ± 2.5
x1 = 0.962	667.2 ± 25	330.3 ± 10	179.6 ± 4.7	118.9 ± 2.8

COCCOCCOCCO + CCOC(C)(C)C
viscosity [mPa·s], 101 kPa
Details	293.15 K	298.15 K	303.15 K
x2 = 0.0504	6.269 ± 0.11	5.479 ± 0.097	4.777 ± 0.086
x2 = 0.1	5.458 ± 0.094	4.8 ± 0.083	4.209 ± 0.073
x2 = 0.1509	4.734 ± 0.08	4.186 ± 0.071	3.689 ± 0.062
x2 = 0.2025	4.101 ± 0.067	3.643 ± 0.06	3.225 ± 0.053
x2 = 0.2489	3.607 ± 0.057	3.216 ± 0.051	2.859 ± 0.046
x2 = 0.3007	3.129 ± 0.048	2.801 ± 0.043	2.501 ± 0.039
x2 = 0.3511	2.729 ± 0.041	2.453 ± 0.037	2.199 ± 0.033
x2 = 0.3999	2.394 ± 0.035	2.159 ± 0.032	1.944 ± 0.029
x2 = 0.4508	2.091 ± 0.03	1.893 ± 0.027	1.712 ± 0.025
x2 = 0.5001	1.837 ± 0.026	1.669 ± 0.023	1.516 ± 0.021
x2 = 0.5493	1.616 ± 0.022	1.475 ± 0.02	1.345 ± 0.019
x2 = 0.6	1.418 ± 0.019	1.3 ± 0.018	1.192 ± 0.016
x2 = 0.6503	1.248 ± 0.017	1.149 ± 0.015	1.058 ± 0.014
x2 = 0.6998	1.102 ± 0.014	1.019 ± 0.013	0.943 ± 0.013
x2 = 0.7491	0.974 ± 0.013	0.906 ± 0.012	0.842 ± 0.011
x2 = 0.7999	0.86 ± 0.011	0.803 ± 0.011	0.751 ± 0.01
x2 = 0.8509	0.759 ± 0.01	0.712 ± 0.009	0.669 ± 0.009
x2 = 0.9001	0.674 ± 0.009	0.635 ± 0.009	0.6 ± 0.008
x2 = 0.9498	0.599 ± 0.008	0.566 ± 0.008	0.536 ± 0.007
